Key:
Type in all cases: biochemical
Human Mer = biological target: T1, Human Mer (Homo sapiens, UniProt Q12866); experiment: Human Mer kinase assay (33P radiometric / HTRF KinEase); conditions: protocols of Examples C-1 and/or C-2
T1 construct: Human Mer (residues R557-E882 with H628Q and R794A, 0.7 nM); purchased Eurofins Pharma Discovery Services UK Limited (KinaseProfiler service)
T1 sequence (Q12866 557-882 limits assumed): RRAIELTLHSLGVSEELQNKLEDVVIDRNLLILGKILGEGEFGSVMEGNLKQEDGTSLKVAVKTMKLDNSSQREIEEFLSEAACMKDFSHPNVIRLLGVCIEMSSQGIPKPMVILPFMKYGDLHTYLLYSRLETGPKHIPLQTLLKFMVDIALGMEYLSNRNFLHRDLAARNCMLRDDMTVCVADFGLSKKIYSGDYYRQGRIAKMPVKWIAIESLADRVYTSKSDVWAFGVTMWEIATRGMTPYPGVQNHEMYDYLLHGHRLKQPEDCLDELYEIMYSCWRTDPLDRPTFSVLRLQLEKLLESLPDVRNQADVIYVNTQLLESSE
Experimental: (§1) Kinase activity and compound inhibition were investigated using the ^33P-Phosphoryl transfer radiometric kinase assay, performed using the KinaseProfiler™ service of Eurofins Pharma Discovery Services UK Limited. Dose-response experiments were performed using nine compound concentrations in a 96-well microtiter plate. For each assay, all compounds were prepared to a 50× final assay concentration (50 μM) in 100% DMSO, then diluted in a half-log series, with the final top concentration at 1 μM. This working stock of the compound was added to the assay well as the first component in the reaction, followed by the remaining components as detailed in the following assay protocols below. The positive control wells (100% kinase activity) contain all components of the reaction including 2% DMSO (control for solvent effects), except the compound of interest. Blank wells contain all components of the reaction, with the reference inhibitor, staurosporine. This reference compound was used to abolish kinase activity and generated the 0% kinase activity base-line. IC50 values were calculated by nonlinear regression analysis using the sigmoidal dose-response (variable slope) curve fit on XLFit version 5.3 (ID Business Solutions).
(§2) Kinase activity and compound inhibition were also investigated using the HTRF® KinEase assay (Cisbio Cat #62TKOPEB) per manufacturer's instructions. In short, compounds were delivered in 300 nL volumes at 10 different concentrations in DMSO (3% final) to empty 384-well assay plates (Corning cat #3824). A mixture of enzyme, 1 μM biotinylated peptide substrate, and buffer in 10 μL volume was added. The assay was started upon the addition of ATP (at Km). The 10 μL reaction was incubated at room temperature. The reaction was stopped upon the addition of detection buffer containing streptavidin-XL665 (5 μL) and TK antibody-Eu3+(5 μL). After a 60 min incubation at room temperature, the fluorescence at 665 nm and 620 nm was read on an Envision microplate reader (Perkin Elmer).
(§3) Kinase activity normalized to DMSO (100% activity) and reference compound at 1 μM and (0% activity) was calculated using the fluorescence ratio […]. IC50 values were calculated by nonlinear regression analysis using a 4-parameter logistic curve fit in ActivityBase XE (IDBS).
(§4) Example C-1: Human Mer (residues R557-E882 with H628Q and R794A, 0.7 nM) was incubated with 8 mM MOPS pH 7.0, 0.2 mM EDTA, 30 mM NaCl, 250 μM GGMEDIYFEFMGGKKK (SEQ ID NO: 2), 10 mM magnesium acetate, and 10 μM [γ-^33P-ATP]. The reaction was initiated by the addition of the Mg/ATP mix. After incubation for 40 minutes at room temperature, the reaction was stopped by the addition of phosphoric acid to a concentration of 0.5%. A reaction aliquot of 10 μL was then spotted onto a P30 filtermat and washed four times for 4 minutes in 0.425% phosphoric acid and once in methanol prior to drying and scintillation counting. Incorporated ^33P was measured using the Wallac Microbeta scintillation counter (Perkin Elmer).
Example C-2: Human MER (residues 528-999; CarnaBio, 1 ng/well) was also incubated with enzymatic buffer (Cisbio) supplemented with 5 mM MgCl2 and 1 mM DTT. The mixture was added to the pre-plated compounds. The reaction was initiated upon addition of ATP at Km (40 μM). The reaction was incubated at room temperature for 60 min and stopped upon the addition of SA-XL665 and TK-antibody both diluted in EDTA-containing kinase detection buffer (Cisbio). The kinase activity was calculated as stated above and the IC50 values were reported.

Human Met = biological target: T2, Human Met (Homo sapiens, UniProt P08581); experiment: Human Met kinase assay (33P radiometric / HTRF KinEase); conditions: protocols of Examples D-1 and/or D-2; read-out: c-Met IC50
T2 construct: Human MET (residues 956-1390)
Experimental: as §1, §2, §3
Example D-1: Human Met (residues R974-S1390 with A1209G and V1290L, 3.4 nM) was incubated with 8 mM MOPS pH 7.0, 0.2 mM EDTA, 250 μM KKKGQEEEYVFIE (SEQ ID NO:3), 1 mM sodium orthovanadate, 5 mM […], 10 mM magnesium acetate, and 10 μM [γ-^33P-ATP]. The reaction was initiated by the addition of the Mg/ATP mix. After incubation for 40 minutes at room temperature, the reaction was stopped by the addition of phosphoric acid to a concentration of 0.5%. A reaction aliquot of 10 μL was then spotted onto a P30 filtermat and washed four times for 4 minutes in 0.425% phosphoric acid and once in methanol prior to drying and scintillation counting. Incorporated ^33P was measured using the Wallac Microbeta scintillation counter (Perkin Elmer).
(§5) Example D-2: Human MET (residues 956-1390; CarnaBio, 0.1 ng/well) was also incubated with enzymatic buffer (Cisbio) supplemented with 5 mM MgCl2, 1 mM DTT and 1 mM MnCl2. The mixture was added to the pre-plated compounds. The reaction was initiated upon addition of ATP at Km (3.0 μM). The reaction was incubated at room temperature for 40 min and stopped upon the addition of SA-XL665 and TK-antibody both diluted in EDTA-containing kinase detection buffer (Cisbio). The kinase activity was calculated as stated above and the IC50 values were reported.

Human KDR = biological target: T3, Human KDR (Homo sapiens, UniProt P35968); experiment: Human KDR kinase assay (33P radiometric / HTRF KinEase); conditions: protocols of Examples B-1 and/or B-2
T3 construct: Human KDR (residues K790-V1356, 55 nM); purchased Eurofins Pharma Discovery Services UK Limited (KinaseProfiler, B-1) and/or CarnaBio (B-2)
Experimental: as §1, §2, §3
as §4, with “B-1:” for “C-1:”, “KDR” for “Mer”, “K790-V1356, 55” for “R557-E882 with H628Q and R794A, 0.7”, “0.33 mg/mL myelin basic protein,” for “30 mM NaCl, 250 μM GGMEDIYFEFMGGKKK (SEQ ID NO: 2),”
as §5, with “B-2:” for “D-2:”, “KDR” for “MET”, “790-1356;” for “956-1390;”, “MnCl2,” for “DTT”, “DTT.” for “MnCl2.”, “(4.0” for “(3.0”

T2 sequence (P08581 974-1390 limits assumed): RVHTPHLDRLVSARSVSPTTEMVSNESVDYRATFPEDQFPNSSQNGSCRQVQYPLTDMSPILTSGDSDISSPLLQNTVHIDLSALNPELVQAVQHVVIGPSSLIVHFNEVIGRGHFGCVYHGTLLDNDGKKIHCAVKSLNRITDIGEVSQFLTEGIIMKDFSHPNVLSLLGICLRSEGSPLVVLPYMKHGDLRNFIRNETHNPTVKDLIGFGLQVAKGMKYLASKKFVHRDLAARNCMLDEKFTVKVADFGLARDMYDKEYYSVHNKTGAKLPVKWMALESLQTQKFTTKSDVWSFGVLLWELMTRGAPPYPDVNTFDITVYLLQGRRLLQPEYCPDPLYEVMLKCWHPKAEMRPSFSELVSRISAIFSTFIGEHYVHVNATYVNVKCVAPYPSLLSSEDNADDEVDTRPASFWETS
T3 sequence (P35968 790-1356): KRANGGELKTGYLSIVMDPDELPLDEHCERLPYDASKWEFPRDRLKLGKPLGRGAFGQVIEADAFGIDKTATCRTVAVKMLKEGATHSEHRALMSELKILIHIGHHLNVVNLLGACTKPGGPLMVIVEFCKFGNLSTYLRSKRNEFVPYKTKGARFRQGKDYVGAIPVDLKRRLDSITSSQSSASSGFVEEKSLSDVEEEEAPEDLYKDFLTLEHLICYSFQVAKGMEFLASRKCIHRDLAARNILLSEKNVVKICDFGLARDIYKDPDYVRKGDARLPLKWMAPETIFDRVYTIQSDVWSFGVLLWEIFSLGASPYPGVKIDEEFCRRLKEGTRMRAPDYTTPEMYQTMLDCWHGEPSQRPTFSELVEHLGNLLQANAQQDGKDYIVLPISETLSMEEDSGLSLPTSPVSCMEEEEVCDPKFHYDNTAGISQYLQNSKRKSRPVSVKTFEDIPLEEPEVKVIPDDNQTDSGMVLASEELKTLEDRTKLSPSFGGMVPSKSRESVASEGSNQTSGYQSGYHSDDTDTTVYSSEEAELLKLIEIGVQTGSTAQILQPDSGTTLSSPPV

## COc1cc2nccc(Oc3ccc(NC(=O)c4c5n(c(C)c(C6=CCCC6)c4=O)CCOC5)cc3F)c2nc1OC [Compound 69, 7-(Cyclopenten-1-yl)-N-[4-[(6,7-dimethoxy-1,5-naphthyridin-4-yl)oxy]-3-fluorophenyl]-6-methyl-8-oxo-3,4-dihydro-1H-pyrido[2,1-c][1,4]oxazine-9-carboxamide]
Human Mer
  IC50: ≤ 0.1 µM
Human Met
  IC50: ≤ 0.1 µM
Human KDR
  IC50: ≤ 0.1 µM

## COCCOc1cc2nccc(Oc3ccc(NC(=O)c4c(C)nc(C)c(OC)c4O)cc3F)c2nc1OC [Compound 70, N-[3-Fluoro-4-[[6-methoxy-7-(2-methoxyethoxy)-1,5-naphthyridin-4-yl]oxy]phenyl]-4-hydroxy-5-methoxy-2,6-dimethylpyridine-3-carboxamide]
Human Mer
  IC50: > 0.3 µM
Human Met
  IC50: > 0.3 µM
Human KDR
  IC50: ≤ 0.1 µM

## COCCOc1cc2nccc(Oc3ccc(NC(=O)c4c(C)nc(C)c(OC)c4O)cc3)c2nc1OC [Compound 71, 4-Hydroxy-5-methoxy-N-[4-[[6-methoxy-7-(2-methoxyethoxy)-1,5-naphthyridin-4-yl]oxy]phenyl]-2,6-dimethylpyridine-3-carboxamide]
Human Mer
  IC50: > 0.3 µM
Human Met
  IC50: > 0.3 µM
Human KDR
  IC50: ≤ 0.1 µM

## COCCOc1cc2ncnc(Oc3ccc(NC(=O)c4c(C)nc(C)c(OC)c4O)cc3F)c2nc1OC [Compound 72, N-[3-Fluoro-4-[6-methoxy-7-(2-methoxyethoxy)pyrido[3,2-d]pyrimidin-4-yl]oxyphenyl]-4-hydroxy-5-methoxy-2,6-dimethylpyridine-3-carboxamide]
Human Mer
  IC50: > 0.3 µM
Human Met
  IC50: > 0.3 µM
Human KDR
  IC50: ≤ 0.1 µM

## COc1cnc2c(Oc3ccc(NC(=O)c4c(C)n(C)c(C)c(OC)c4=O)cc3F)ccnc2c1 [Compound 75, N-[3-Fluoro-4-[(7-methoxy-1,5-naphthyridin-4-yl)oxy]phenyl]-5-methoxy-1,2,6-trimethyl-4-oxopyridine-3-carboxamide]
Human Mer
  IC50: > 0.3 µM
Human Met
  IC50: > 0.3 µM
Human KDR
  IC50: > 0.3 µM

## COc1cc2nccc(Oc3ccc(NC(=O)c4c(C)n(C)c(C)c(OC)c4=O)cc3)c2nc1OC [Compound 76, N-[4-[(6,7-Dimethoxy-1,5-naphthyridin-4-yl)oxy]phenyl]-5-methoxy-1,2,6-trimethyl-4-oxopyridine-3-carboxamide]
Human Mer
  IC50: > 0.3 µM
Human Met
  IC50: > 0.3 µM
Human KDR
  IC50: > 0.3 µM

## COc1cc2nccc(Oc3ccc(NC(=O)c4c(C)n(C)c(C)c(OC)c4=O)cc3F)c2nc1OC [Compound 77, N-[4-[(6,7-Dimethoxy-1,5-naphthyridin-4-yl)oxy]-3-fluorophenyl]-5-methoxy-1,2,6-trimethyl-4-oxopyridine-3-carboxamide]
Human Mer
  IC50: > 0.3 µM
Human Met
  IC50: > 0.3 µM
Human KDR
  IC50: > 0.3 µM

## COc1cc2nccc(Oc3ccc(NC(=O)c4c(C)n(C)c(C)c(C#N)c4=O)cc3F)c2nc1OC [Compound 78, 5-Cyano-N-[4-[(6,7-dimethoxy-1,5-naphthyridin-4-yl)oxy]-3-fluorophenyl]-1,2,6-trimethyl-4-oxopyridine-3-carboxamide]
Human Mer
  IC50: > 0.3 µM
Human Met
  IC50: > 0.3 µM
Human KDR
  IC50: > 0.3 µM

## COc1cc2nccc(Oc3ccc(NC(=O)c4c5n(cc(C6=CCCC6)c4=O)CCOC5)cc3F)c2nc1OC [Compound G1-1, 7-(Cyclopenten-1-yl)-N-[4-[(6,7-dimethoxy-1,5-naphthyridin-4-yl)oxy]-3-fluorophenyl]-8-oxo-3,4-dihydro-1H-pyrido[2,1-c][1,4]oxazine-9-carboxamide]
Human Mer
  IC50: ≤ 0.1 µM
Human Met
  IC50: ≤ 0.1 µM
Human KDR
  IC50: 0.1 to 0.3 µM

## COc1cc2nccc(Oc3ccc(NC(=O)c4c5n(cc(C6=CCCC6)c4=O)CCOC5)cc3)c2nc1OC [Compound G1-6, 7-(Cyclopenten-1-yl)-N-[4-[(6,7-dimethoxy-1,5-naphthyridin-4-yl)oxy]phenyl]-8-oxo-3,4-dihydro-1H-pyrido[2,1-c][1,4]oxazine-9-carboxamide]
Human Mer
  IC50: ≤ 0.1 µM
Human Met
  IC50: ≤ 0.1 µM
Human KDR
  IC50: > 0.3 µM

## COc1cc2nccc(Oc3ccc(NC(=O)c4c5n(cc(C6=CCOCC6)c4=O)CCOC5)cc3F)c2nc1OC [Compound G1-7, 7-(3,6-Dihydro-2H-pyran-4-yl)-N-[4-[(6,7-dimethoxy-1,5-naphthyridin-4-yl)oxy]-3-fluorophenyl]-8-oxo-3,4-dihydro-1H-pyrido[2,1-c][1,4]oxazine-9-carboxamide]
Human Mer
  IC50: ≤ 0.1 µM
Human Met
  IC50: ≤ 0.1 µM
Human KDR
  IC50: > 0.3 µM
